# Calls of active or inactive are those of the source. The calls are words filed in the database; no cut-off is given here.
# Legend:
# Cholinesterase [1] = molecular target: Cholinesterase (Equus caballus, UniProt P81908); experiment: Inhibition of horse serum BuChE using butyrylthiocholine as substrate by Ellman's method
# Cannabinoid receptor 1 = Cannabinoid receptor 1 (Homo sapiens, UniProt P21554); experiment: Displacement of [3H]-CP55940 from human CB1 receptor transfected in HEK-293EBNA cells after 90 mins by luminescence counting analysis; assay type: cell-based
# Cannabinoid receptor 2 = Cannabinoid receptor 2 (Homo sapiens, UniProt P34972); experiment: Displacement of [3H]-CP55940 from human CB2 receptor transfected in HEK-293EBNA cells after 90 mins by luminescence counting analysis; assay type: cell-based
# Cholinesterase [2] = molecular target: T1, Cholinesterase (Homo sapiens, UniProt P06276); experiment: Inhibition of human BuChE using butyrylthiocholine as substrate by Ellman's method
# Acetylcholinesterase [3] = molecular target: T2, Acetylcholinesterase (Homo sapiens, UniProt P22303); experiment: Inhibition of human AChE using acetylthiocholine as substrate by Ellman's method
# [4] = molecular target: T3, Cannabinoid receptor (Mus musculus) (UniProt P47746+P47936); experiment: Agonist activity at CB1/CB2 receptor in ICR mouse vas deferens assessed as inhibition of electrically induced contractile response at 2.7 X 10^-6 M after 10 mins in presence of AM251
# [5] = molecular target: Cannabinoid receptor 1 (Mus musculus) (UniProt P47746); experiment: Agonist activity at CB1 receptor in ICR mouse vas deferens assessed as inhibition of electrically induced contractile response after 10 mins
# [6] = Antioxidant activity in phosphate buffer after 15 mins by ORAC-FL method relative to trolox; assay type: functional
# Cholinesterase [7] = molecular target: T1, Cholinesterase; experiment: Competitive inhibition of BuChE (unknown origin) using butyrylthiocholine as substrate by Lineweaver-Burk double reciprocal plot analysis
# [8] = molecular target: T3, Cannabinoid receptor (Mus musculus); experiment: Agonist activity at CB1/CB2 receptor in ICR mouse vas deferens assessed as inhibition of electrically induced contractile response at 2.7 X 10^-6 M after 10 mins in presence of AM251 and AM630
# [9] = molecular target: Cannabinoid receptor 1 (Mus musculus) (UniProt P47746); experiment: Agonist activity at CB1 receptor in ICR mouse vas deferens assessed as inhibition of electrically induced contractile response at 10^-7 to 2 X 10^-5 M after 10 mins
# Cholinesterase [10] = molecular target: T1, Cholinesterase; experiment: Noncompetitive inhibition of BuChE (unknown origin) using butyrylthiocholine as substrate by Lineweaver-Burk double reciprocal plot analysis
# Acetylcholinesterase [11] = molecular target: T2, Acetylcholinesterase; experiment: Competitive inhibition of AChE (unknown origin) by Lineweaver-Burk double reciprocal plot analysis
# Cholinesterase [12] = molecular target: T1, Cholinesterase; experiment: Mixed-type inhibition of BuChE (unknown origin) using butyrylthiocholine as substrate by Lineweaver-Burk double reciprocal plot analysis
# Sequence of Cannabinoid receptor 2 (P34972 whole entry): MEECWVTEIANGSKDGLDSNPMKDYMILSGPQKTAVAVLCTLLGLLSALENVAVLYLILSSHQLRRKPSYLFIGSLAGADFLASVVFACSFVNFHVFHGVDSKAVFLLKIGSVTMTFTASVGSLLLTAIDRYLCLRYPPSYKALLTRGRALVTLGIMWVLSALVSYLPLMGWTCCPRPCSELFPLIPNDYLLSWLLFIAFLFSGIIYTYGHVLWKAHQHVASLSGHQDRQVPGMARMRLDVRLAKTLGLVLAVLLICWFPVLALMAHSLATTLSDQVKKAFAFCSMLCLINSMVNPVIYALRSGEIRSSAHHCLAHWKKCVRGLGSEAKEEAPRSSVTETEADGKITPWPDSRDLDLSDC
# Sequence of Cholinesterase (Equus caballus, UniProt P81908) (P81908 whole entry): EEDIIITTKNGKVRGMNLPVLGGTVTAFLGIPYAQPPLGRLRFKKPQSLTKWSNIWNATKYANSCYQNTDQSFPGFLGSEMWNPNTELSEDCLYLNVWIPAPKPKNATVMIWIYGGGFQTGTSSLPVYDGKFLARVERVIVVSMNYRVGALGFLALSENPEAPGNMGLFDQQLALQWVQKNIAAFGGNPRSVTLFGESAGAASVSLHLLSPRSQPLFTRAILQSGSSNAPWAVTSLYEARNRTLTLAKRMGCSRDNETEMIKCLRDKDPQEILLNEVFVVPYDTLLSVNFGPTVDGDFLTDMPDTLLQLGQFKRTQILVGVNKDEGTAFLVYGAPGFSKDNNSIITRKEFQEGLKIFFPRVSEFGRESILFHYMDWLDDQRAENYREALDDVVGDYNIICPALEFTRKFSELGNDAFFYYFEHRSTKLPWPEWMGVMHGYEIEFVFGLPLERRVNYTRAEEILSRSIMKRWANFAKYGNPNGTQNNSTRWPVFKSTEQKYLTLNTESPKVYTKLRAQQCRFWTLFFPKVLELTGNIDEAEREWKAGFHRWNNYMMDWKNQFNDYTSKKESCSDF
# T1 sequence (P06276 whole entry): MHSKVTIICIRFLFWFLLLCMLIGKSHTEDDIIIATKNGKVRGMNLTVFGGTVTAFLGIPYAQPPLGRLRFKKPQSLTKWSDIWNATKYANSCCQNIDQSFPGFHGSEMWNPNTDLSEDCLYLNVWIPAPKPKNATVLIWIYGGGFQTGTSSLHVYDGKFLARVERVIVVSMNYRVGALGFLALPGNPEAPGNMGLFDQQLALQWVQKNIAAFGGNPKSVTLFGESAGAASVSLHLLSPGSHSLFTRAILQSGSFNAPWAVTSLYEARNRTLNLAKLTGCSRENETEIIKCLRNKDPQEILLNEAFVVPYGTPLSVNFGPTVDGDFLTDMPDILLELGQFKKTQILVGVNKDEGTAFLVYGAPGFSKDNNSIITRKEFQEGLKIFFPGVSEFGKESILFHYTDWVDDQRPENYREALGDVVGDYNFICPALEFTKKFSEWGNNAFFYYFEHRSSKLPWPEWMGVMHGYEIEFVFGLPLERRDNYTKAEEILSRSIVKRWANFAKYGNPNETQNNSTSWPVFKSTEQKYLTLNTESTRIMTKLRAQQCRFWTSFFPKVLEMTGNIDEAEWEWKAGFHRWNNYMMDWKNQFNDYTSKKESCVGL
# Sequence of Cannabinoid receptor 1 (P21554 whole entry): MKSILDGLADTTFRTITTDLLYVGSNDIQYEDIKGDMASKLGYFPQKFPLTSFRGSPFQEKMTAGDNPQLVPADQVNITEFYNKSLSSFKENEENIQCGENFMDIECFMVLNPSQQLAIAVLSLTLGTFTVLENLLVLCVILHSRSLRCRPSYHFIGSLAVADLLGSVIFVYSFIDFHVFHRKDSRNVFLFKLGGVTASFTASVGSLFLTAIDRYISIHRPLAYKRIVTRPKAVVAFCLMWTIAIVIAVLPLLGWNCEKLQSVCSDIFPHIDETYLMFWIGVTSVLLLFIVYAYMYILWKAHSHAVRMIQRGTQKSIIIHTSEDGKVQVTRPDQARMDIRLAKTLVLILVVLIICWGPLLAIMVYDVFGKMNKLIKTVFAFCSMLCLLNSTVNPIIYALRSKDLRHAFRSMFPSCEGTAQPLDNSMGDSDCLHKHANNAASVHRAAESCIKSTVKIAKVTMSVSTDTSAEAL
# Sequence of Cannabinoid receptor 1 (Mus musculus) (P47746 whole entry): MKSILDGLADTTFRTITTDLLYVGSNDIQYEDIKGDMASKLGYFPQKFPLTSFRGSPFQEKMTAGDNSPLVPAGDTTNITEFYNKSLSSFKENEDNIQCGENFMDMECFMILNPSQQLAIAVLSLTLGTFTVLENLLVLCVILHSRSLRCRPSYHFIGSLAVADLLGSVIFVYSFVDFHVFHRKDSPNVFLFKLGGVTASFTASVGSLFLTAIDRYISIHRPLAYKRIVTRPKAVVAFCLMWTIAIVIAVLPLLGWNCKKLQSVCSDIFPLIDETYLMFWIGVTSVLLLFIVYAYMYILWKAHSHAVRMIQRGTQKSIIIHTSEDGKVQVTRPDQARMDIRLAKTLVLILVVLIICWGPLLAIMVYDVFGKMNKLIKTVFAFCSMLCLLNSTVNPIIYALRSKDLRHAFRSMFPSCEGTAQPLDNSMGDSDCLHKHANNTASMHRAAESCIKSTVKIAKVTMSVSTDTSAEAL
# T3 sequence (P47746 whole entry, looked up): as the sequence (P47746 whole entry) above
# T3 sequence (P47936 whole entry, looked up): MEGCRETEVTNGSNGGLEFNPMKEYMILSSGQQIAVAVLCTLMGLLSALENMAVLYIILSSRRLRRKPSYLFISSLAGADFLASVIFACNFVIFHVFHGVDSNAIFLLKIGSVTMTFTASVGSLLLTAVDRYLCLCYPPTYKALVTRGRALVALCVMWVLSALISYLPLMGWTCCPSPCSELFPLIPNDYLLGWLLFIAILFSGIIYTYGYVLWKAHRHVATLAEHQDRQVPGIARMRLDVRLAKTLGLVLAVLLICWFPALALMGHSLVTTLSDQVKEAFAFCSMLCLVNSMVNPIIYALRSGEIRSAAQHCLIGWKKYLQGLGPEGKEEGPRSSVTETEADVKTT
# T2 sequence (P22303 whole entry): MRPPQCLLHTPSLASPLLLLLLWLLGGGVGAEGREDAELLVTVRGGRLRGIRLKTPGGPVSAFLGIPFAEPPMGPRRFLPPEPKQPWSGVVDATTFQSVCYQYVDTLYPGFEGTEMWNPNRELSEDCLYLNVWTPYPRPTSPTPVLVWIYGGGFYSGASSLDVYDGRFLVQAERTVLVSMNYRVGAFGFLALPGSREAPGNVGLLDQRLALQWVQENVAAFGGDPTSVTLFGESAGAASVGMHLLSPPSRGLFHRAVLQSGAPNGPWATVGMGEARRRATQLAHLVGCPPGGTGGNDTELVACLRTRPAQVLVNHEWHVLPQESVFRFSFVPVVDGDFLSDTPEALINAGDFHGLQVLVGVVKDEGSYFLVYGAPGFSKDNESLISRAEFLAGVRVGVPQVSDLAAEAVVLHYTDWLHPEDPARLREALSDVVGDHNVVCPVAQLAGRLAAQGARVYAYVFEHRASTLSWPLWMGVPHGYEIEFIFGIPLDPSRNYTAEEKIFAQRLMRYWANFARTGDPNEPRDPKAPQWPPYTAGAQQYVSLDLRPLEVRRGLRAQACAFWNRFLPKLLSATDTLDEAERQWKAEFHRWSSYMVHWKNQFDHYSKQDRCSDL
Compound,IC50 (Cholinesterase [1]),Ki (Cannabinoid receptor 1),Ki (Cannabinoid receptor 2),IC50 (Cholinesterase [2]),IC50 (Acetylcholinesterase [3]),inhibition [4],inhibition [5],Ratio [6],Ki (Cholinesterase [7]),inhibition [8],inhibition [9],Ki (Cholinesterase [10]),inhibition (Acetylcholinesterase [11]),Ki (Cholinesterase [12]),inhibition (Cannabinoid receptor 1)
CCCCCOc1nn(CCCCC)c2ccc([N+](=O)[O-])cc12,> 10 µM,1.3 µM,0.68 µM,> 10 µM,4.2 µM,–,–,–,–,–,–,–,–,–,–
c1ccc2c(COc3nn(CCN4CCCC4)c4ccccc34)cccc2c1,6.7 µM,0.56 µM,0.4 µM,2.83 µM,> 10 µM,Active,Dose-dependent effect,0.7,1.2 µM,Active,Active,–,–,–,–
COc1ccc(COc2nn(CCN(C(C)C)C(C)C)c3ccccc23)cc1,2.28 µM,> 40 µM,7.7 µM,4.8 µM,> 10 µM,inactive,Dose-dependent effect,1,–,inactive,–,2.6 µM,–,–,–
O=[N+]([O-])c1ccc2c(c1)c(OCc1ccc3ccccc3c1)nn2Cc1ccc2ccccc2c1,> 10 µM,> 10 µM,> 10 µM,> 10 µM,> 10 µM,–,–,–,–,–,–,–,–,–,–
O=[N+]([O-])c1ccc2c(c1)c(OCc1ccc3ccccc3c1)nn2Cc1ccccc1,> 10 µM,> 10 µM,0.4 µM,> 10 µM,6.3 µM,–,–,–,–,–,–,–,–,–,–
COc1ccc(COc2nn(Cc3ccc(OC)cc3)c3ccccc23)cc1,> 10 µM,2.4 µM,0.9 µM,> 10 µM,> 10 µM,–,–,–,–,–,–,–,–,–,–
c1ccc(COc2nn(Cc3ccccc3)c3ccccc23)cc1,–,2.6 µM,3.51 µM,> 25 µM,2.9 µM,–,–,–,–,–,–,–,–,–,–
c1ccc2c(c1)c(OCC1CCCCC1)nn2CC1CCCCC1,> 10 µM,0.2 µM,1.3 µM,> 10 µM,7.1 µM,–,–,–,–,–,–,–,–,–,–
c1ccc2c(COc3nn(CCN4CCCCC4)c4ccccc34)cccc2c1,0.91 µM,3 µM,0.24 µM,0.81 µM,> 10 µM,Active,Dose-dependent effect,0.5,0.22 µM,Active,Active,–,Active,–,–
c1ccc2cc(COc3nn(CCN4CCCCC4)c4ccccc34)ccc2c1,1.4 µM,1.4 µM,2 µM,0.97 µM,> 10 µM,inactive,Dose-dependent effect,0.5,–,inactive,Active,1.19 µM,–,–,–
c1ccc2c(COc3nn(Cc4cccc5ccccc45)c4ccccc34)cccc2c1,–,> 10 µM,> 10 µM,> 10 µM,> 10 µM,–,–,–,–,–,–,–,–,–,–
COc1ccc(COc2nn(CCN(C(C)C)C(C)C)c3ccc([N+](=O)[O-])cc23)cc1,–,> 40 µM,9 µM,> 100 µM,91 µM,–,–,–,–,–,–,–,–,–,–
O=[N+]([O-])c1ccc2c(c1)c(OCc1ccccc1)nn2Cc1ccccc1,> 10 µM,1.2 µM,0.4 µM,> 10 µM,7.3 µM,–,–,–,–,–,–,–,–,–,–
Nc1ccc2c(c1)c(OCc1ccccc1)nn2Cc1ccccc1,> 10 µM,4 µM,1.6 µM,> 10 µM,–,–,–,–,–,–,–,–,–,–,–
O=[N+]([O-])c1ccc2c(c1)c(OCc1ccc3ccccc3c1)nn2CCN1CCOCC1,> 10 µM,1.38 µM,0.5 µM,> 10 µM,> 10 µM,–,–,–,–,–,–,–,–,–,–
Nc1ccc2c(c1)c(OCc1ccc3ccccc3c1)nn2CCN1CCCCC1,1.5 µM,> 40 µM,2 µM,–,> 10 µM,inactive,Dose-dependent effect,0.8,–,inactive,Active,–,–,0.38 µM,–
CCCCCn1nc(OCc2ccc3ccccc3c2)c2cc([N+](=O)[O-])ccc21,> 10 µM,1.6 µM,1.37 µM,> 10 µM,8.2 µM,–,–,–,–,–,–,–,–,–,–
Nc1ccc2c(c1)c(OCc1cccc3ccccc13)nn2CCN1CCCC1,–,11 µM,5 µM,3 µM,> 25 µM,Active,Dose-dependent effect,1.3,1 µM,Active,Active,–,–,–,–
CC(C)N(CCn1nc(OCc2cccc3ccccc23)c2ccccc21)C(C)C,–,> 40 µM,5.4 µM,0.1 µM,> 10 µM,–,–,–,0.028 µM,–,–,–,Active,–,–
O=[N+]([O-])c1ccc2c(c1)c(OCc1cccc3ccccc13)nn2CCN1CCCC1,–,0.6 µM,0.13 µM,4.5 µM,> 25 µM,–,Dose-dependent effect,–,2.1 µM,–,–,–,–,–,–
Cc1c(C(=O)c2cccc3ccccc23)c2cccc3c2n1[C@H](CN1CCOCC1)CO3,–,–,–,–,–,–,–,–,–,–,Active,–,–,–,–
Brc1ccc2c(c1)c(OCc1ccc3ccccc3c1)nn2CCN1CCCCC1,–,1.7 µM,1.8 µM,0.19 µM,> 10 µM,–,–,–,0.079 µM,–,–,–,–,–,–
O=[N+]([O-])c1ccc2c(c1)c(OCc1cccc3ccccc13)nn2Cc1cccc2ccccc12,–,3.8 µM,0.24 µM,> 10 µM,6.7 µM,–,–,–,–,–,–,–,–,–,–
O=[N+]([O-])c1ccc2c(c1)c(OCc1ccc3ccccc3c1)nn2CCN1CCCCC1,2.07 µM,1.3 µM,0.5 µM,3.6 µM,> 10 µM,–,–,–,–,–,–,–,–,2.9 µM,–
CCCCCn1nc(OCc2ccc(OC)cc2)c2cc([N+](=O)[O-])ccc21,> 10 µM,0.8 µM,0.49 µM,> 10 µM,9.7 µM,–,–,–,–,–,–,–,–,–,–
O=[N+]([O-])c1ccc2c(c1)c(OCC1CCCCC1)nn2Cc1ccccc1,> 10 µM,> 40 µM,0.09 µM,> 10 µM,> 10 µM,–,–,–,–,–,–,–,–,–,39%

# Source: ChEMBL document CHEMBL3112400, “Cannabinoid agonists showing BuChE inhibition as potential therapeutic agents for Alzheimer's disease” (Eur J Med Chem, 2014)
